Laboratory results published in patent US8648111B2, “N1-2-thiophene-2-ylethyl-N2-substituted biguanide derivate, preparation method thereof, and pharmaceutical composition containing the same as active ingredients” (Hanall Biopharma Co., Ltd., priority 2008, dated 2014).
Read-outs that look alike come from different tables or passages of the source.

Assays:
Type in all cases: cell-based
HepG2 cells [1] = assay: Measurement of cholesterol synthesis inhibitory ability (cholesterol content in cell lysates, Amplex red)
Procedure: (§1) 2 mM metformin was used as a comparative compound for each of the plates (control group).
A cholesterol synthesis inhibitory ability, which is an important function of AMPK (AMP-activated protein kinase), was measured using HepG2 cells (ATCC: American Type Culture Collection) as a hepatic cell model according to the following procedure.
The hepatic cell model HepG2 cells were cultured in 1% serum-containing media (DMEM (Gibco), FBS (Gibco)) for 24 hours, and then treated with 100 μM or 500 μM of each of the compounds prepared in Examples for 24 hours. Then, the cells were disrupted with a lysis solution (0.1 M potassium phosphate, pH 7.4, 0.05 M NaCl, 5 mM cholic acid, 0.1% Triton X-100 (Sigma)). To the disrupted cells was added the same volume of a reaction solution (2 U/mL of a cholesterol oxidizing agent, 2 U/mL of a peroxidase, 0.2 U/mL of a cholesterol esterase, and 300 μM of Amplex red as a fluorescent factor (Molecular Probe)), which was allowed to react at 37° C. for 30 minutes. After completion of the reaction, the content of cholesterol formed in the cell lysates was measured at a wavelength of 560/590 nm (ex/em) using a fluorescence microscope.
A lower measurement value means an increased cholesterol synthesis inhibitory ability.

HepG2 cells [2] = assay: Measurement of triglyceride (triglyceride content in cell lysates, Amplex red)
Procedure: as §1
HepG2 cells (ATCC: American Type Culture Collection) were cultured in 1% serum-containing media (DMEM (Gibco), FBS (Gibco)) for 24 hours, and then treated with 100 μM or 500 μM of each of the compounds prepared in Examples for 24 hours. Then, the cells were disrupted with a lysis solution (0.1 M potassium phosphate, pH 7.4, 0.05 M NaCl, 5 mM cholic acid, 0.1% Triton X-100). […] After completion of the reaction, the content of triglyceride formed in the cell lysates was measured at a wavelength of 560/590 nm (ex/em) using a fluorescence microscope.
A lower measurement value means an increased triglyceride synthesis inhibitory ability.

HepG2 cells [3] = assay: Measurement of gluconeogenesis inhibitory ability (14C-lactate, glucose formed in cells)
Procedure: as §1
HepG2 cells (ATCC: American Type Culture Collection) were cultured in 10% serum-containing high glucose media, transferred to no serum-containing low glucose media (DMEM (Gibco), FBS (Gibco)), and then treated with 100 μM of each of the compounds for 24 hours. Then, the cells were treated with 0.5 μCi ^14C-lactate (Amersham Pharmacia) and 10 mM L-lactate (Sigma), and cultured for 4 hours. After cultivation, the media were removed therefrom, and the cells were washed with PBS, treated with 0.1N NaOH and kept at room temperature for 1 hour. Then, the cells were neutralized with 1N HCl, and the content of glucose formed in the cells was measured with a liquid scintillation counter.
A lower measurement value means an increased gluconeogenesis inhibitory ability.

C2C12 cells = assay: Measurement of glucose absorption ability (3H-deoxy-glucose uptake with insulin); conditions: 100 uM compound with 1 μM insulin, 24 hours, differentiated C2C12, higher value = stronger, more than 200% counts as glucose absorption ability
Procedure: as §1
C2C12 cells (ATCC: American Type Culture Collection), a muscle cell model, were induced to differentiate into muscle cells in 2% bovine fetal serum-containing media (DMEM (Gibco), FBS (Gibco)) for 6 days. The C2C12 cells which differentiated into muscle cells were transferred to serum-free low glucose media (DMEM (Gibco), FBS (Gibco)), treated with 100 μM of each of the compounds, and then cultured with 1 μM of insulin for 24 hours. After cultivation, the cells were treated with 1 μCi ^3H-deoxy-glucose (Amersham Pharmacia) and 10 μM deoxy-glucose (Sigma) at 37° C. for 15 minutes. The media were removed therefrom, and the cells were washed twice with PBS (phosphate buffered saline). The washed cells were treated with 0.1N NaOH and neutralized with 1N HCl. The content of glucose absorbed into the cells was measured with a liquid scintillation counter.
A higher measurement value means a stronger ability to reduce insulin resistance.

[4] = 100 uM compound, 24 hours, HepG2, lower value = stronger cholesterol synthesis inhibition
[5] = 500 uM compound, 24 hours, HepG2, lower value = stronger cholesterol synthesis inhibition
[6] = 100 uM compound, 24 hours, HepG2, lower value = stronger triglyceride synthesis inhibition
[7] = 500 uM compound, 24 hours, HepG2, lower value = stronger triglyceride synthesis inhibition
[8] = 100 uM compound, 24 hours, HepG2, lower value = stronger gluconeogenesis inhibition
[9] = 100 uM compound, 24 hours, HepG2, lower value = stronger cholesterol synthesis inhibition, hydrochloride
[10] = 500 uM compound, 24 hours, HepG2, lower value = stronger cholesterol synthesis inhibition, hydrochloride
[11] = 100 uM compound, 24 hours, HepG2, lower value = stronger triglyceride synthesis inhibition, hydrochloride
[12] = 500 uM compound, 24 hours, HepG2, lower value = stronger triglyceride synthesis inhibition, hydrochloride
[13] = 100 uM compound, 24 hours, HepG2, lower value = stronger gluconeogenesis inhibition, hydrochloride, 100 µM
[14] = 100 uM compound, 24 hours, HepG2, lower value = stronger gluconeogenesis inhibition, 100 µM

Row | Molecule | Cholesterol (100 uM) Aver. (HepG2 cells [1]; [4]) | Cholesterol (500 uM) Aver. (HepG2 cells [1]; [5]) | Triglyceride (100 uM) Aver. (HepG2 cells [2]; [6]) | Triglyceride (500 uM) Aver. (HepG2 cells [2]; [7]) | Gluconeogenesis inhibition (100 uM) Aver. (HepG2 cells [3]; [8]) | Glucose absorption (100 uM) Aver. (C2C12 cells) | other results
1 | Cl.N=C(N)NC(=NC1CCCC1)NCCc1cccs1 [Example 21, N1-2-(thiophen-2-ylethyl)-N2-cyclopentyl biguanide hydrochloride] | 68.2 | 45.8 | 80.5 | 85.6 | 97.66 | 174.8% | –
2 | COc1ccc(N=C(NCCc2cccs2)NC(=N)N)cc1.Cl [Example 15, N1-2-(thiophen-2-ylethyl)-N2-(4-methoxy)phenyl biguanide hydrochloride] | – | – | – | – | – | – | Cholesterol (100 uM) Aver. (HepG2 cells [1]; [9]): 67.3; Cholesterol (500 uM) Aver. (HepG2 cells [1]; [10]): 39.7; Triglyceride (100 uM) Aver. (HepG2 cells [2]; [11]): 76.6; Triglyceride (500 uM) Aver. (HepG2 cells [2]; [12]): 41.4; Gluconeogenesis inhibition (100 uM) Aver. (HepG2 cells [3]; [13]): 86.69; Glucose absorption (100 uM) Aver. (C2C12 cells; hydrochloride): 124.3%
3 | N1-2-(5-ethylthiophen-2-ylethyl)-N2-methyl biguanide hydrochloride [Example 46] | 84.52 | 71.64 | 90.82 | 86.07 | – | 353.21% | Gluconeogenesis inhibition (100 uM) Aver. (HepG2 cells [3]): 23.65
4 | CCCN=C(NCCc1cccs1)NC(=N)N.Cl [Example 13, N1-2-(thiophen-2-ylethyl)-N2-propyl biguanide hydrochloride] | 77.1 | 61.7 | 59.3 | 48.9 | 73.51 | 110.2% | –
5 | Cc1ccc(CN=C(NCCc2cccs2)NC(=N)N)cc1.Cl [Example 40, N1-2-(thiophen-2-ylethyl)-N2-(4-methylbenzyl) biguanide hydrochloride] | – | – | – | – | – | 75.38% | Cholesterol (100 uM) Aver. (HepG2 cells [1]): 72.58; Cholesterol (500 uM) Aver. (HepG2 cells [1]): 57.11; Triglyceride (100 uM) Aver. (HepG2 cells [2]): 84.73; Triglyceride (500 uM) Aver. (HepG2 cells [2]): 60.37; Gluconeogenesis inhibition (100 uM) Aver. (HepG2 cells [3]): 81.23
6 | COc1ccc(CN=C(NCCc2cccs2)NC(=N)N)cc1.Cl [Example 38, N1-2-(thiophen-2-ylethyl)-N2-(4-methoxybenzyl) biguanide hydrochloride] | 80.35 | 44.72 | 100.89 | 84.10 | 120.13 | 195.22% | –
7 | Cl.N=C(N)NC(=Nc1cccc2ccccc12)NCCc1cccs1 [Example 3, N1-2-(thiophen-2-ylethyl)-N2-1-naphthyl biguanide hydrochloride] | 30.90 | 31.14 | 5.28 | −6.37 | 3.73 | 15.10% | –
8 | Cc1cccc(N=C(NCCc2cccs2)NC(=N)N)c1.Cl [Example 27, N1-2-(thiophen-2-ylethyl)-N2-(3-methylphenyl) biguanide hydrochloride] | 33.26 | 28.82 | 46.45 | 20.64 | 56.42 | 12.91% | –
9 | CN=C(NCCc1cccs1)NC(=N)N.Cl [Example 10, N1-2-(thiophen-2-ylethyl)-N2-methyl biguanide hydrochloride (isomer)] | 52.29 | – | 76.16 | – | – | 6.91% | Gluconeogenesis inhibition (100 uM) Aver. (HepG2 cells [3]; [14]): 5.72
10 | Cl.N=C(N)NC(=NCC1CC1)NCCc1cccs1 [Example 43, N1-2-(thiophen-2-ylethyl)-N2-cyclopropylmethyl biguanide hydrochloride] | 88.47 | 78.80 | 90.52 | 79.92 | 99.28 | 196.03% | –
11 | COc1ccc(OC)c(N=C(NCCc2cccs2)NC(=N)N)c1.Cl [Example 16, N1-2-(thiophen-2-ylethyl)-N2-(2,5-dimethoxy)phenyl biguanide hydrochloride] | – | – | – | – | – | – | Cholesterol (100 uM) Aver. (HepG2 cells [1]; [9]): 85.0; Cholesterol (500 uM) Aver. (HepG2 cells [1]; [10]): 58.5; Triglyceride (100 uM) Aver. (HepG2 cells [2]; [11]): 73.8; Triglyceride (500 uM) Aver. (HepG2 cells [2]; [12]): 51.3; Gluconeogenesis inhibition (100 uM) Aver. (HepG2 cells [3]; [13]): 68.89; Glucose absorption (100 uM) Aver. (C2C12 cells; hydrochloride): 147.3%
12 | CC(C)N=C(NCCc1cccs1)NC(=N)N.Cl [Example 41, N1-2-(thiophen-2-ylethyl)-N2-isopropyl biguanide hydrochloride] | 87.73 | 75.54 | 93.91 | 81.62 | 97.81 | 150.65% | –
13 | CCCCN=C(NCCc1cccs1)NC(=N)N.Cl [Example 25, N1-2-(thiophen-2-ylethyl)-N2-butyl biguanide hydrochloride] | – | – | – | – | – | – | Cholesterol (100 uM) Aver. (HepG2 cells [1]; [9]): 32.66; Cholesterol (500 uM) Aver. (HepG2 cells [1]; [10]): 19.87; Triglyceride (100 uM) Aver. (HepG2 cells [2]; [11]): 19.21; Triglyceride (500 uM) Aver. (HepG2 cells [2]; [12]): 17.02; Gluconeogenesis inhibition (100 uM) Aver. (HepG2 cells [3]; [13]): 0.00; Glucose absorption (100 uM) Aver. (C2C12 cells; hydrochloride): 2.76%
14 | CCCCN=C(NCCc1cccs1)NC(=N)N.Cl [Example 26, N1-2-(thiophen-2-ylethyl)-N2-butyl biguanide hydrochloride (isomer)] | 43.20 | 13.28 | 47.59 | 30.67 | – | 18.34% | Gluconeogenesis inhibition (100 uM) Aver. (HepG2 cells [3]; [14]): 81.70
